Source: patent EP1028734B1, “USE OF SPECIFIC STEADY-STATE R-TYPE CALCIUM CHANNEL BLOCKERS” (priority 1997, dated 1999)
Like-named read-outs stand apart in the source and are kept apart here.

Columns and labels:
R-type Ca^2+ channel = test: block of R-type Ca2+ channel (data not shown); assay type: cell-based
[1] = writhe responses in mice (acetic acid, acetylcholine, kaolin); assay type: in vivo; conditions: i.p., mice; for ID50 ACETYLCHOLINE: acetylcholine-induced writhes; for ID50 KAOLIN: kaolin-induced writhes
Text: (§1) The antinociceptive actions of compound MV 8612 and MV 8608 were investigated in different models of nociception in mice as reported previously (Vaz et al., 1996, J. Pharmacol. Exp. Ther. 278:304-312).

tail-flick in mice = assay type: in vivo; conditions: i.p.
Text: as §1

[2] = anaesthetized guinea pig, blood pressure and bronchoconstriction, PAF challenge; assay type: in vivo
Text: (§2) On the other hand, in vivo administered PAF, induced a marked hypotension in the anaesthetized rat and guinea pig.

fast Na^+ channel = test: block of fast Na+ channel (data not shown); assay type: cell-based; conditions: read-out: ED50, fast Na^+ channel
[3] = La Civita et al., 1996; cited from earlier work
[4] = cited from earlier work
[5] = organ (allograft) transplant with cyclosporin A treatment, ET-1, blood flow, hypertension; assay type: in vivo, rabbit
[6] = anaesthetized rat, blood pressure, PAF challenge; assay type: in vivo; conditions: results not shown
Text: as §2

[7] = test system: human osteoblast cancer lines (MG63 and FAOS-2); test: spontaneous proliferation of human osteoblast cancer lines; assay type: cell-based; conditions: Lomir/Dynacirc 10^-8M, nifedipine 10^-6M, non published results
[8] = transplant patients, Berg et al., 1991

Which “block of the R-type Ca^2+ by L-type Ca^2+ channel blockers” value (“block” below) (R-type Ca^2+ channel) does the source give for `COc1ccc([C@@H]2Sc3cc(Cl)ccc3N(CCN(C)C)C(=O)[C@@H]2OC(C)=O)cc1` [Clentiazem] here?
Its value is “none were found to block”.

With `COc1ccc(CCN(C)CCCC(C#N)(c2cc(OC)c(OC)c(OC)c2)C(C)C)cc1OC` (stereo not shown) [D600] as the compound, how does the “block” value (R-type Ca^2+ channel) read?
Its value is “none were found to block”.

With `COc1cccc(CCN(C)CCCC(C#N)(c2ccc(OC)c(OC)c2)C(C)C)c1` (stereo not shown) [D888] as the compound, how does the “block” value (R-type Ca^2+ channel) read?
Its value is “none were found to block”.

For `COc1ccc([C@@H]2Sc3ccccc3N(CCN(C)C)C(=O)[C@@H]2OC(C)=O)cc1` [Diltiazem], which “block” value (R-type Ca^2+ channel) is on record?
Its value is “none were found to block”.

For `COc1ccc2c(c1)c(CC(=O)O)c(C)n2C(=O)c1ccc(Cl)cc1` [INDOMETHACIN, indomethacin], which “ID50 ACETIC ACID” value ([1]; acetic acid-induced writhes) is on record?
Its value is 1.2 (0.9-1.4) µmol/kg.

And the “ID50 ACETYLCHOLINE” value [1]?
Its value is 0.8 (0.5-1.0) µmol/kg.

And the “ID50 KAOLIN” value [1]?
The value was 1.6 (1.4-1.8) µmol/kg.

And the “ID50 TAIL-FLICK” value (tail-flick in mice)?
The value was “no effect”.

For `CN1CC[C@]23c4c5ccc(O)c4O[C@H]2[C@@H](O)C=C[C@H]3[C@H]1C5` [MORPHINE, morphine], which “ID50 ACETYLCHOLINE” value [1] is on record?
The value was 1.4 (1.0-1.8) µmol/kg.

What about the “ID50 KAOLIN” value [1] of the same compound?
The value was 1.4 (1.2-1.7) µmol/kg.

What about the “ID50 TAIL-FLICK” value (tail-flick in mice) of the same compound?
The value was 6.0(5.7-6.4) µmol/kg.

For `COc1ccc(CCN(C)CCCC(C#N)(c2ccc(OC)c(OC)c2)C(C)C)cc1OC` (stereo not shown) [Verapamil], which “block” value (R-type Ca^2+ channel) is on record?
Its value is “none were found to block”.

For `COC(=O)C1=C(C)NC(C)=C(C(=O)OC(C)C)C1c1cccc2nonc12` (stereo not shown) [isradipine], which “intrinsic (hypotensive) effect” value [2] is on record?
The value was “marked intrinsic hypotensive properties”.

What about the EC50 (fast Na^+ channel) of the same compound?
The EC50 was about 10 µM.

What about the “elevated plasma concentration of ET-1 level, frequency, severity of acute attacks of Raynaud's phenomenon” value [3] of the same compound?
The value was “significantly reduced”.

And the filtration fraction ([4]; 3-month study, Grossman et al. 1991)?
The filtration fraction was “remained constant”.

And the filtration fraction [4, 8]?
The filtration fraction was “reduced”.

What about the renal blood flow [4, 8] of the same compound?
The renal blood flow was “increased”.

And the “elevated circulating endothelin level induced with the Sandimmune drugs” value ([5]; data not shown)?
The value was “blocks”.

And the “hypertension and ET-1 plasma elevation associated with cyclosporin A treatment in allograft transplant” value ([5]; non published results)?
Its value is “blocked”.

And the “increase of circulating ET-1 and decrease of blood flow in organ transplants” value ([5]; rabbit, cyclosporin-A treated and transplanted animals)?
Its value is “restored”.

And the intrinsic hypotensive properties [6]?
Its intrinsic hypotensive properties is “marked intrinsic hypotensive properties”.

What about the spontaneous cell proliferation [7] of the same compound?
The spontaneous cell proliferation was “reduced”.

Which “intrinsic (hypotensive) effect” value [2] does the source give for `COC(=O)C1=C(C)NC(C)=C(C(=O)OC)C1c1ccccc1[N+](=O)[O-]` [nifedipine] here?
Its value is “marked intrinsic hypotensive properties”.

What about the intrinsic hypotensive properties [6] of the same compound?
The intrinsic hypotensive properties was “marked intrinsic hypotensive properties”.
